# Reference: patent US7563921B2, “2-cyano-3(halo)alkoxy-benzenesulfonamide compounds for combating animal pests” (BASF Aktiengesellschaft, priority 2004, dated 2009)
# Tests used:
# [1] = test system: Cotton Aphid (Aphis gossypii); test: Cotton Aphid cotyledon dip test on cotton plants; type: in vivo; details: 120 h, cotton cotyledons dipped, mortality counts after 5 days, read-out: mortality in comparison with untreated controls
# From the text: Cotton Aphid (Aphis gossypii)
# (§1) The active compounds were formulated in 50:50 acetone:water and 100 ppm Kinetic® surfactant.
# Cotton plants in the cotyledon stage (variety ‘Delta Pine’, one plant per pot) were infested by placing a heavily infested leaf from the main colony on top of each cotyledons. The aphids were allowed to transfer to the host plant overnight, and the leaf used to transfer the aphids was removed. The cotyledons were dipped in the test solution and allowed to dry. After 5 days, mortality counts were made.
# Bean Aphid (Aphis fabae) = test: Bean Aphid plant dip test on nasturtium plants; type: in vivo; details: 72 h, nasturtium plants dipped, aphid mortality after 3 days, read-out: mortality in comparison with untreated controls
# From the text: as §1
# Nasturtium plants grown in Metro mix in the 1st leaf-pair stage (variety ‘Mixed Jewel’) were infested with approximately 20-30 laboratory-reared aphids by placing infested cut plants on top of the test plants. The cut plants were removed after 24 hr. Each plant was dipped into the test solution to provide complete coverage of the foliage, stem, protruding seed surface and surrounding cube surface and allowed to dry in the fume hood. The treated plants were kept at about 25° C. with continuous fluorescent light. Aphid mortality is determined after 3 days.
# [2] = test system: Green Peach Aphid (Myzus persicae); test: Green Peach Aphid foliar dip test on pepper plants; type: in vivo; details: 120 h, pepper plant leaves dipped, aphid mortality after 5 days, read-out: mortality in comparison with untreated controls
# From the text: Green Peach Aphid (Myzus persicae)
# as §1
# Pepper plants in the 2nd leaf-pair stage (variety ‘California Wonder’) were infested with approximately 40 laboratory-reared aphids by placing infested leaf sections on top of the test plants. The leaf sections were removed after 24 hr. The leaves of the intact plants were dipped into gradient solutions of the test compound and allowed to dry. Test plants were maintained under fluorescent light (24 hour photoperiod) at about 25° C. and 20-40% relative humidity. Aphid mortality on the treated plants, relative to mortality on check plants, was determined after 5 days.
# [3] = test system: cotton aphids (Aphis gossypil); test: Cotton seed treatment, control of foliar aphids; type: in vivo, Aphis gossypii; details: live aphids counted four days after infestation, versus solvent blank controls
# Procedure: Experimental compound no. 1 (N,N-Dimethyl-2-cyano-3-difluoromethoxyphenylsulfonamide) was evaluated to determine their insecticidal efficacy for control of foliar aphids when applied as seed treatment.
# Experimental compound no. 1 was formulated by dissolving 10.5 mg technical material in 45 μl acetone then adding 255 μl 0.05% aqueous TWEEN 20 (polyoxyethylene (20) sorbitan monolaurate).
# Twenty-five cotton seeds (variety Sure-Grow 747) were placed in a 20-ml glass vial and then 150 μl of the compound formulation were pipetted onto the side of the vial just above the seeds. Vials were vortexed for 30 seconds to rapidly spin the seeds within the vial to apply the compound to the seeds. Treated seeds were then air-dried. […]
# Twenty-four cotton seeds were planted in Metro Mix potting mix in twelve 7.6-cm-square pots, 2 seeds per pot. Crop selectivity was determined by comparing seedling emergence and recording any foliar and shoot symptoms.
# Seedling plants were thinned to one plant per pot. […] The exact number of aphids transferred to each plant was recorded.
# Four days after infestation, live aphids on each plant were counted. The aphid population increase for each control plant was calculated by dividing the final aphid population by the initial population. The median aphid population increase on the solvent blank controls was then calculated. […]
structure (smiles),measurement,setting,value
"COc1cccc(S(=O)(=O)N(C)C)c1C#N [Compound 2, N,N-Dimethyl-2-cyano-3-methoxyphenylsulfonamide]",mortality at 300 ppm,[1],> 85%
same,mortality at 300 ppm,Bean Aphid (Aphis fabae),> 85%
same,mortality at 300 ppm,[2],> 85%
"CN(C)S(=O)(=O)c1cccc(OC(F)F)c1C#N [Compound 1, N,N-Dimethyl-2-cyano-3-difluoromethoxyphenylsulfonamide]",mortality at 300 ppm,[1],> 85%
same,mortality at 300 ppm,Bean Aphid (Aphis fabae),> 85%
same,mortality at 300 ppm,[2],> 85%
same,reduction of the aphid population,[3],significant reduction of the aphid population
